Bounds are passed on as bounds.

This test relates to Radical scavenging activity. Nature of the test: Inhibition of superoxide radical scavenging activity. It is filed as functional.
In the case of `O=c1c(Br)cc2c(-c3ccccc3S(=O)(=O)O)c3cc(Br)c(O)c(O)c3oc-2c1O` [BROMOPYROGALLOL RED], half-maximal inhibition (IC50) required 51.5 µM.
Under `CC1=C/C(=C(/c2cc(C)c(O)c(C(=O)O)c2)c2c(Cl)ccc(S(=O)(=O)O)c2Cl)C=C(C(=O)O)C1=O` [CHROME AZUROL S] stands over 250 µM; under `CC1=C/C(=C(/c2cc(C)c(O)c(C(=O)O)c2)c2ccccc2S(=O)(=O)O)C=C(C(=O)O)C1=O` [ERIOCHROME CYANINE R], over 250 µM.
Under `O=C1C=C/C(=C(/c2ccc(O)c(O)c2)c2ccccc2S(=O)(=O)O)C=C1O` [PYROCATECHOL VIOLET] stands 120 µM; under `O=c1ccc2c(-c3ccccc3S(=O)(=O)O)c3ccc(O)c(O)c3oc-2c1O` [PYROGALLOL RED], 88 µM.

The values are drawn from ChEMBL document CHEMBL1148640, “Biological evaluation, chelation, and molecular modeling studies of novel metal-chelating inhibitors of NF-kappaB-DNA binding: structure activity relationships” (J Med Chem, 2006).
